Measured values taken from EP0894433B1, “A method of preparing a biocidal material” (EASTMAN KODAK COMPANY, priority 1997, dated 1999).

Assay: Partition coefficient between octanol and water by UV/visible absorption
Format: physicochemical
Settings: partition coefficient n-octanol/water, 25°C; read-out: P
Experimental: As used herein, it provides a measure of the hydrophobicity of the biocide.
A variety of commercial and hydrophobically-modified biocides have been studied. Partition coefficients between octanol and water have been determined at 25°C by UV/visible absorption. First, the calibration curve of each biocide was determined as optical density (ODabs) versus concentration of biocide in µg/g (ppm) of water for the predominantly water-soluble materials and µg/g of octanol for the predominantly oil-soluble biocides.
A known amount of biocide was placed in a glass vessel containing either 10ml of water or 10ml of octanol depending on the solubility of the biocide. An equal volume of the other solvent was added and the glass vessel sealed. The vessel was shaken vigorously for a few minutes and then every few hours for more than 48 hours. Each mixture was placed in a sealed separating funnel and left for a further 24 hours. The water phase of each mixture was removed and the UV/visible spectra run against water with appropriate dilutions to bring absorbance between 0 and 1.5 for the commercial biocides and the octanol fractions were examined for the hydrophobically modified biocides.

Row | Structure (SMILES) | logP
1 | CCCCCCCCn1sc2ccccc2c1=O [Compound 1] | > 2.52
2 | CCCCCCCCCCCCCCCCn1sc2ccccc2c1=O [Compound 2] | > 2.11
3 | CCCCCCCCn1sc(Cl)cc1=O [Compound 3] | > 2.75
4 | CCCCCCCCCCCCCCCCCCn1sc(Cl)cc1=O [Compound 4] | > 2.68
5 | CCCCCCCCCCCC[N+](C)(C)CCOc1ccccc1 [Domiphen™] | ~1.7
6 | Cn1sc2c(c1=O)CCC2 [Promexal™] | ~0.653
